≈ marks a conversion by molar mass, not a printed value.
Columns and labels:
[1] = Cytotoxicity against human UISO cells; type: functional; conditions: read-out: ED50 (the source's name)
[2] = Cytotoxicity against human COLON cells; type: functional; conditions: read-out: ED50 (the source's name)

For `C=C1C(=O)O[C@@H]2/C=C(\C)CC/C=C(/C=O)C[C@@H](O)[C@@H]12`, the EC50 [1] was 1.82 mg/L (≈ 6.94 µM) and the EC50 [2] was 0.9 mg/L (≈ 3.43 µM).

— ChEMBL document CHEMBL1150940, “New melampolides from Schkuhria schkuhrioides” (1998)
